Measurements as given in patent publication US20100298299A1, “NON-PEPTIDE DERIVATIVES AS BRADYKININ B1 ANTAGONISTS” (priority 2007, published 2010).
Where a name gives a salt, the structure may show the parent alone. Read-outs that look alike come from different tables or passages of the source.

How the values were obtained:
[1] = target: T1, recombinant human B1 receptors (Homo sapiens, UniProt P46663); test: Functional assay: antagonist potency by cytosolic calcium measurement in CHO-B1 cells; type: cell-based
T1 construct: host or cells: CHO (CHO-B1)
T1 sequence (P46663 1-353): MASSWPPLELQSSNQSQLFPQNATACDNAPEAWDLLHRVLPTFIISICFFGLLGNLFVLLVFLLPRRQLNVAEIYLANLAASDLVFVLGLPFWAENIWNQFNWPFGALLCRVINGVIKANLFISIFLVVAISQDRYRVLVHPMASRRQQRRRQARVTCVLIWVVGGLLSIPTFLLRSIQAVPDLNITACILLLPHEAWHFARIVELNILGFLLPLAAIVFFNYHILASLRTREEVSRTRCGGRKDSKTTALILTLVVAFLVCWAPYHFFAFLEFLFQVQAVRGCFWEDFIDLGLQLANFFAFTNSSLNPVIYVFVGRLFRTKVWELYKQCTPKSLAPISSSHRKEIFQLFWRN
Procedure: Assessment of Antagonist Potency at B1 and B2 Receptors In Vitro by Measurement of Cytosolic Calcium Ion Concentration with a Plate Reader Fluorimeter in Cells Expressing Recombinant Human B1 or B2 Receptors
Chinese hamster ovary (CHO) cells stably expressing recombinant human B1 (CHO-B1, Euroscreen) or B2 (CHO-B2, Perkin-Elmer) receptors were cultured in Dulbecco's Modified Eagle's Medium (DMEM) containing 10% Fetal Calf Serum (FCS), 100 U/ml penicillin, 0.1 mg/ml streptomycin, 0.25 μg/ml amphotericin B, 1% Minimum Essential Medium Eagle (MEM), non essential amino acid solution, 600 μg/ml G418, 1% pyruvate (for the B2 cell line). Cells were kept at 37° C. in a humidified incubator in an atmosphere of 5% CO2/95% air and were passaged 1:4 three times a week. Cells were plated at 1.5−2.5×10^4 cell/well on standard 96-well microplates, measurements of cytosolic calcium ion concentration ([Ca^2+]i) were carried out 1-2 days after cell plating.
Measurements of [Ca^2+]i were carried out on CHO-B1 and CHO-B2 cells stably expressing human B1 and B2 receptors, respectively. Cells were grown in standard 96-well microplates and before the measurement were loaded with a fluorescent Ca^2+-sensitive dye, fluo-4/AM (2 μM): after removing the culture medium the dye was added to the cells (dissolved in assay buffer: 145 mM NaCl, 5 mM KCl, 2 mM MgCl2, 2 mM CaCl2, 10 mM HEPES, 20 mM D-glucose, 2 mM probenecid, 100 μl/well) and cells were incubated at 37° C. in a humidified incubator in an atmosphere of 5% CO2/95% air for 40-120 min. To stop dye loading cells were washed twice with assay buffer. After washing, various concentrations of the test compounds (diluted in extracellular medium from a DMSO stock solution, final DMSO concentration was <0.1%) or buffer were added to each well depending on the experimental setup. After incubation at 37° C. for 20-25 min. baseline and agonist-evoked changes of [Ca^2+]i were measured column by column with a plate reader fluorimeter (Fluoroskan Ascent, Labsystems). Excitation and detection of emission was carried out from the bottom of the plate. Filters used for Fluo-4: excitation filter—485 nm, emission filter—538 nm. The whole measurement process was performed at 37° C. and was controlled by custom software. Inhibitory potency of the test compounds was assessed by measuring the reduction in the agonist-evoked [Ca^2+]i-elevation in the presence of different concentrations of the compounds. The agonists were LysDABK for CHO-B1, and bradykinin for CHO-B2 cells. Agonists were applied at an EC80 concentration, the EC80-values were derived from daily determined dose-response curves. Fluorescence data were expressed as ΔF/F (fluorescence change normalized to baseline). All treatments on a single plate were measured in multiple wells. Data from all wells with the same treatment were averaged and the average values were used for analysis. Inhibitory potency of a compound at a single concentration point was expressed as percent inhibition of the control agonist response. Sigmoidal concentration-inhibition curves were fitted to the data (derived from at least three independent experiments) and IC50-values were determined as the concentration that produces half of the maximal inhibition caused by the compound.

[2] = target: T2, human recombinant bradykinin B1 receptor (Homo sapiens, UniProt P46663); test: Human recombinant bradykinin B1 receptor binding
T2 construct: purchased Euroscreen ES-091; host or cells: CHO cells
T2 sequence (P46663 1-353): T1 sequence (P46663 1-353)
Procedure: 1. Human Recombinant Bradykinin B1 Receptor Binding
Binding assays were carried out on human recombinant bradykinin) receptors (expressed in CHO cells) according to the Euroscreen Technical Data Sheet (Cat. No.: ES-091). 20 μg protein/tube was incubated with [3,4-prolyl-3,4-^3H(N)]-[Des-Arg^10] Kallidin as radioligand. Non specific binding was determined in the presence of 10 μM Lys-des-Arg^9-Bradykinin. The final incubation volume was 250 μl. Samples were incubated for 15 min. at 25° C. then were rapidly vacuum filtered through GF/B filters presoaked for at least 1 h in 0.5% PEI. Radioactivity was determined by liquid scintillation spectroscopy.

[3] = CHO-B1 cells, inhibition of LysDABK (EC80)-evoked [Ca2+]i elevation, read-out: B1 func.
[4] = CHO cell membranes, [3H]-[Des-Arg10] Kallidin radioligand, read-out: B1 binding
[5] = reference compounds, functional test, read-out: IC50
[6] = reference compounds, binding test, read-out: Ki

`CN(C)CCN1CCN(C(=O)CNC(=O)c2ccc(S(=O)(=O)Nc3ccccc3Sc3ccccc3)cc2)CC1` [Example 4, N-{2-[4-(2-Dimethylamino-ethyl)-piperazin-1-yl]-2-oxo-ethyl}-4-(2-phenylsulfanyl-phenylsulfamoyl)-benzamide] gave an IC50 [1, 3] of 20 to 100 nM and a Ki [2, 4] of 20 to 100 nM.
With `O=C(N[C@@H](Cc1ccc(O)cc1)C(=O)N1CCC(CCO)CC1)c1ccc(S(=O)(=O)Nc2ccccc2Oc2ccccc2)cc1` [Example 35, (S)—N-{1-(4-Hydroxy-benzyl)-2-[4-(2-hydroxy-ethyl)-piperidin-1-yl]-2-oxo-ethyl}-4-(2-phenoxy-phenylsulfamoyl)-benzamide] the IC50 [1, 3] was < 20 nM and the Ki [2, 4] was < 20 nM.
With `O=C(N[C@H](Cc1ccc(O)cc1)C(=O)N1CCC(O)CC1)c1ccc(S(=O)(=O)Nc2ccccc2Oc2ccccc2)cc1` [Example 29, (R)—N-[1-(4-Hydroxy-benzyl)-2-(4-hydroxy-piperidin-1-yl)-2-oxo-ethyl]-4-(2-phenoxy-phenylsulfamoyl)-benzamide] the IC50 [1, 3] was < 20 nM and the Ki [2, 4] was < 20 nM.
With `O=C(CNC(=O)c1ccc(S(=O)(=O)Nc2ccccc2Sc2ccccc2)cc1)NCC1CCNCC1` [Example 39, 4-(2-Phenylsulfanyl-phenylsulfamoyl)-N-{[(piperidin-4-ylmethyl)-carbamoyl]-methyl}-benzamide hydrochloride] the IC50 [1, 3] was < 20 nM and the Ki [2, 4] was < 20 nM.
In the case of `CCCN1C(=O)[C@H](NC(=O)Nc2ccc(N3CCC(N4CCCCC4)CC3)cc2)N=C(c2ccc(C)cc2)c2ccccc21` [compound 3, N-[4-(4′-bipiperidin)-1′-ylphenyl]-N′-[(3R)-2,3-dihydro-5-(4-methyl-phenyl)-2-oxo-1-propyl-1H-1,4-benzodiazepin-3-yl]-urea, reference compound], the IC50 [1, 5] is reported as 64.5 nM and the Ki [2, 6] is reported as 13.4 nM.
`O=C(N[C@@H](Cc1ccc(O)cc1)C(=O)N1CCC(CCN2CCCC2)CC1)c1ccc(S(=O)(=O)Nc2ccccc2Oc2ccccc2)cc1` [Example 32, (S)—N-{1-(4-Hydroxy-benzyl)-2-oxo-2-[4-(2-pyrrolidin-1-yl-ethyl)-piperidin-1-yl]-ethyl}-4-(2-phenoxy-phenylsulfamoyl)-benzamide] was tested, and the IC50 [1, 3] was < 20 nM and the Ki [2, 4] was < 20 nM.
`CN1CCN(C(=O)C2CCN(S(=O)(=O)c3ccc(NCC(c4ccccc4)c4ccccc4)c(C(=O)N4CCOCC4)c3)CC2)CC1` [NVP-SAA164, 4-{2-[(2,2-diphenyl-ethyl)-amino]-5-{4-[4-[(4-methyl-1-piperazinyl)-carbonyl]-1-piperidinyl]-sulfonyl}-benzoyl}-morfoline, reference compound] showed an IC50 [1, 5] of 33 nM and a Ki [2, 6] of 8 nM.
`CN(C)CCCN1CCN(C(=O)CNC(=O)c2ccc(S(=O)(=O)Nc3ccccc3Sc3ccccc3)cc2)CC1` [Example 6, N-{2-[4-(3-Dimethylamino-propyl)-piperazin-1-yl]-2-oxo-ethyl}-4-(2-phenylsulfanyl-phenylsulfamoyl)-benzamide] showed an IC50 [1, 3] of 20 to 100 nM and a Ki [2, 4] of 20 to 100 nM.
For `O=C(NCC(=O)N1CCC(CCN2CCCC2)CC1)c1ccc(S(=O)(=O)Nc2ccccc2Sc2ccccc2)cc1` [Example 2, N-{2-oxo-2-[4-(2-pyrrolidin-1-yl-ethyl)-piperidin-1-yl]-ethyl}-4-(2-phenylsulfanyl-Phenylsulfamoyl)-benzamide], the IC50 [1, 3] was < 20 nM and the Ki [2, 4] was < 20 nM.
Work on `O=C(NCC(=O)N1CCCN(CCCN2CCCC2)CC1)c1ccc(S(=O)(=O)Nc2ccccc2Sc2ccccc2)cc1` [Example 7, N-{2-Oxo-2-[4-(3-pyrrolidin-1-yl-propyl)-[1,4]diazepan-1-yl]-ethyl}-4-(2-phenylsulfanyl-phenylsulfamoyl)-benzamide] yielded an IC50 [1, 3] of 20 to 100 nM and a Ki [2, 4] of 20 to 100 nM.
With `O=C(N[C@H](CO)C(=O)N1CCC(CCN2CCCC2)CC1)c1ccc(S(=O)(=O)Nc2ccccc2Oc2ccccc2)cc1` [Example 27, (R)—N-{1-Hydroxymethyl-2-oxo-2-[4-(2-pyrrolidin-1-yl-ethyl)-piperidin-1-yl]-ethyl}-4-(2-phenoxy-phenylsulfamoyl)-benzamide] the IC50 [1, 3] was < 20 nM and the Ki [2, 4] was < 20 nM.
With `CN1CCC(N2CCN(C(=O)[C@H](Cc3ccc(O)cc3)NC(=O)c3ccc(S(=O)(=O)Nc4ccccc4Oc4ccccc4)cc3)CC2)CC1` [Example 37, (S)—N-{1-(4-Hydroxy-benzyl)-2-[4-(1-methyl-piperidin-4-yl)-piperazin-1-yl]-2-oxo-ethyl}-4-(2-phenoxy-phenylsulfamoyl)-benzamide] the IC50 [1, 3] was < 20 nM and the Ki [2, 4] was < 20 nM.
With `O=C(N[C@@H](Cc1ccc(O)cc1)C(=O)N1CCC(N2CCCC2)CC1)c1ccc(S(=O)(=O)Nc2ccccc2Oc2ccccc2)cc1` [Example 33, (S)—N-[1-(4-Hydroxy-benzyl)-2-oxo-2-(4-pyrrolidin-1-yl-piperidin-1-yl)-ethyl]-4-(2-phenoxy-phenylsulfamoyl)-benzamide] the IC50 [1, 3] was < 20 nM and the Ki [2, 4] was < 20 nM.
With `O=C(NCC(=O)N1CCN(CCCN2CCCC2)CC1)c1ccc(S(=O)(=O)Nc2ccccc2Sc2ccccc2)cc1` [Example 5, N-{2-Oxo-2-[4-(3-pyrrolidin-1-yl-propyl)-piperazin-1-yl]-ethyl}-4-(2-phenylsulfanyl-phenylsulfamoyl)-benzamide] the IC50 [1, 3] was 20 to 100 nM and the Ki [2, 4] was 20 to 100 nM.
With `O=C(N[C@@H](Cc1ccc(O)cc1)C(=O)N1CCC(O)CC1)c1ccc(S(=O)(=O)Nc2ccccc2Oc2ccccc2)cc1` [Example 34, (S)—N-[1-(4-Hydroxy-benzyl)-2-(4-hydroxy-piperidin-1-yl)-2-oxo-ethyl]-4-(2-phenoxy-phenylsulfamoyl)-benzamide] the IC50 [1, 3] was < 20 nM and the Ki [2, 4] was < 20 nM.
`O=C(NCC(=O)N1CCC(N2CCCC2)CC1)c1ccc(S(=O)(=O)Nc2ccccc2Sc2ccccc2)cc1` [Example 3, N-[2-Oxo-2-(4-pyrrolidin-1-yl-piperidin-1-yl)-ethyl]-4-(2-phenylsulfanyl-phenylsulfamoyl)-benzamide] was tested, and the IC50 [1, 3] was < 20 nM and the Ki [2, 4] was < 20 nM.
With `O=C(N[C@H](Cc1ccc(O)cc1)C(=O)N1CCC(CCN2CCCC2)CC1)c1ccc(S(=O)(=O)Nc2ccccc2Oc2ccccc2)cc1` [Example 31, (R)—N-{1-(4-Hydroxy-benzyl)-2-oxo-2-[4-(2-pyrrolidin-1-yl-ethyl)-piperidin-1-yl]-ethyl}-4-(2-phenoxy-phenylsulfamoyl)-benzamide] the IC50 [1, 3] was < 20 nM and the Ki [2, 4] was < 20 nM.
For `CN1CCCC(CN2CCN(C(=O)CNC(=O)c3ccc(S(=O)(=O)Nc4ccccc4Sc4ccccc4)cc3)CC2)C1` (centres unmarked) [Example 8, N-{2-[4-(1-Methyl-piperidin-3-ylmethyl)-piperazin-1-yl]-2-oxo-ethyl}-4-(2-phenylsulfanyl-phenylsulfamoyl)-benzamide], the IC50 [1, 3] was 20 to 100 nM and the Ki [2, 4] was 20 to 100 nM.
Work on `O=C(NCC(=O)N1CCN(CCN2CCOCC2)CC1)c1ccc(S(=O)(=O)Nc2ccccc2Sc2ccccc2)cc1` [Example 9, N-{2-[4-(2-Morpholin-4-yl-ethyl)-piperazin-1-yl]-2-oxo-ethyl}-4-(2-phenylsulfanyl-phenylsulfamoyl)-benzamide] yielded an IC50 [1, 3] of 20 to 100 nM and a Ki [2, 4] of 20 to 100 nM.
